Publication PMC10094921, “A Lipidated Single-B-Chain Derivative of Relaxin Exhibits Improved In Vitro Serum Stability without Altering Activity” (International Journal of Molecular Sciences, 2023)
Each block holds one compound with its values, some of them ahead of it. Starred links: 1 amine or outer side, 2 acyl side, 3 side chain; linkers in the order of their positions; H or OH if unused. Non-standard residues stand in square brackets, D forms with d. Residues, ends and D or L forms follow the SMILES beside them. Groups on a side chain read outwards from the residue. *: point of attachment. PEG12 = NCCOCCOCCOCCOCCOCCOCCOCCOCCOCCOCCOCCOCCC(=O)O; γGlu = O=C(O)[C@H](CCC(=O)[*:2])N[*:1]; PEG6 = NCCOCCOCCOCCOCCOCCOCCC(=O)O; Palmitoyl = CCCCCCCCCCCCCCCC(=O)*

How the values were obtained:
[1] = In vitro serum stability assay; format: in vitro ADME, human; conditions: 37 °C
Procedure: 3.7. In Vitro Serum Stability Assay
A total of 400 µL of human serum was taken, and 200 µg peptide dissolved in 100 µL of water was added to human serum at 37 °C. A total of 80 µL of samples was removed at various time points (0 min, 30 min, 60 min, 120 min, 240 min, and 480 min), and 160 µL of acetonitrile was added to precipitate plasma proteins. The solution was then centrifuged at 12,000 rpm for 15 min at 4 °C. A total of 200 µL of supernatant was taken out and mixed with 240 µL of milli-Q water, and each sample was analyzed by RP-HPLC (2 × 80 μL injection), by measuring the area under the peak at the appropriate retention time compared to the peak area of the peptide at time zero minute (100%). Data analysis (n = 3, duplicate) was performed using Prism Version 8.0.2, a non-linear-fit one-phase decay model.

[2] = system: BJ3 human dermal myofibroblasts; assay: Myofibroblast differentiation in vitro (α-SMA expression, Western blot); format: cell-based
Procedure: 3.8. Determination of the Effects of Lipidated (L)-B7-33 on Myofibroblast Differentiation In Vitro
To determine if the lipidation of B7-33 prolonged its ability to suppress myofibroblast differentiation in vitro, the effects of the native B7-33 peptide vs. lipidated (L)-B7-33 were compared in BJ3 cells, a human dermal fibroblast cell line. BJ3 fibroblasts were used between passages 15–18 and cultured as described before. […] BJ3 cells were plated in 12-well plates at a density of 1–1.25 × 10^5 cells per well and were then either left untreated or stimulated with transforming growth factor (TGF)-β1 (T; 2 ng/mL) alone (to promote myofibroblast differentiation) or with T + B7-33 (100 ng/mL) or T + L-B7-33 (100 ng/mL) for a 14-day period, in media that was left unchanged over this time period. The cells from duplicate wells per treatment group were isolated from plates at 3-, 5-, 7-, 10- and 14-days post-T ± peptide treatment and extracted for protein using the RIPA lysis buffer (ThermoFisher Scientific; Scoresby, Victoria, Australia). These experiments were performed six independent times.
Half the cell protein (in 10 μL of RIPA buffer) from each sample (that was fully reconstituted in 20 μL of RIPA buffer) was loaded and electrophoresed in separate mini-protean 4–15% precast gels, and analyzed by Western blotting using a primary monoclonal antibody to α-SMA (42 kDa; M0851; […]; Agilent Technologies, Santa Clara, CA, USA). The equivalent loading of protein between samples was confirmed using a rabbit monoclonal glyceraldehyde 3-phosphate dehydrogenase (GAPDH) housekeeping antibody (37 kDa; 2118; 1:1000 dilution; Cell Signaling Technology; Danvers, MA, USA). Each membrane was then subjected to appropriate anti-mouse (7076) or anti-rabbit (7074) horseradish peroxidase-conjugated secondary antibodies (both at a 1:2000 dilution; Cell Signaling Technologies), before proteins were detected using the Clarity Western ECL substrate detection kit and quantified by densitometry with a ChemiDoc MP Imaging System and Image Lab v.6.0 software (both from Bio-Rad Laboratories, Hercules, CA, USA).The density of α-SMA from each sample was corrected for GAPDH protein levels and then expressed relative to the ratio that was measured from the unstimulated control group, which was expressed as 1 in each case. Representative blots of α-SMA and GAPDH were also chosen for presentation in each case.

[3] = biological target: T1, 7BP protein (RXFP1 extracellular domain attached with a single TM domain) (Homo sapiens, UniProt Q9HBX9); assay: Eu-H2 relaxin competition binding in HEK-7BP cells, BSA free; conditions: HEK-293T cells stably expressing 7BP, BSA excluded from buffer, mean ± SEM, n in brackets, one-site fit, read-out: HEK-7BP Binding B.S.A. Free Eu-H2 pKi (n) (converted)
T1 construct: RXFP1 extracellular domain attached with a single TM domain instead of the native 7 TM domain; single transmembrane domain replacing the native 7 TM domain (heterologous); expressed in transfected cells; host or cells: HEK-293T cells stably expressing 7BP (HEK-7BP)
T1 sequence (Q9HBX9 1-409 limits assumed): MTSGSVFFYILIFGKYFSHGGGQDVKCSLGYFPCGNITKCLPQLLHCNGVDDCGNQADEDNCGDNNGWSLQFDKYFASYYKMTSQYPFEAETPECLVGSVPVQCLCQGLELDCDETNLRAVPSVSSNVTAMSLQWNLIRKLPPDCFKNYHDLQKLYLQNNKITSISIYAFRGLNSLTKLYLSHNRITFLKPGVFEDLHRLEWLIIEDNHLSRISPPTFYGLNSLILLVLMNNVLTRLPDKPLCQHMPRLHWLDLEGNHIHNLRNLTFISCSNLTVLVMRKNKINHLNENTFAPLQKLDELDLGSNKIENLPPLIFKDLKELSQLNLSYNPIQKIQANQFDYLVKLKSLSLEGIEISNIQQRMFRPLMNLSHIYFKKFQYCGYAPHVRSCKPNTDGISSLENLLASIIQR
Procedure: 3.6. HEK-7BP Binding Assays
HEK-293T cells stably expressing the 7BP protein (HEK-7BP; RXFP1 extracellular domain attached with a single TM domain instead of the native 7 TM domain [30]) were plated in 96-well plates. The medium was aspirated off, and the cells were washed with phosphate-buffered saline (PBS) before competition binding assays were performed with Eu-H2 Relaxin (RXFP1 ligand), as previously described, with the only difference being that BSA was excluded from the binding assay buffer. Competition binding curves for each peptide were performed in triplicate, and each experiment was performed independently at least three times. Fluorescent measurements were carried out on a BMG POLARstar plate reader (BMG Labtech, Melbourne, Australia). Pooled data are presented as mean ± SE of specific binding and are fitted using a one-site binding curve in GraphPad Prism version 8 (GraphPad Inc., San Diego, CA, USA). Statistical analyses were conducted using a one-way analysis of variance with uncorrected Fisher’s least significant difference (LSD) post-hoc analysis in GraphPad Prism version 8.

half-life at 400 µg/mL ([1]; human serum 400 µL + 200 µg peptide in 100 µL water, samples 0-480 min, acetonitrile precipitation, RP-HPLC peak area vs time zero, one-phase decay fit, n = 3, duplicate): 1 h
in vitro serum stability, in words ([1]; human serum, RP-HPLC, n = 3 independent experiments): stable in serum over time
SMILES: CCCCCCCCCCCCCCCC(=O)N[C@@H](CCC(=O)NCCCC[C@H](NC(C)=O)C(=O)NCCOCCOCCOCCOCCOCCOCCOCCOCCOCCOCCOCCOCCC(=O)N[C@H](C(=O)N[C@H](C(=O)N[C@@H](CCCCN)C(=O)N[C@@H](CC(C)C)C(=O)N[C@@H](CO)C(=O)NCC(=O)N[C@@H](CCCNC(=N)N)C(=O)N[C@@H](CCC(=O)O)C(=O)N[C@@H](CC(C)C)C(=O)N[C@H](C(=O)N[C@@H](CCCNC(=N)N)C(=O)N[C@@H](C)C(=O)N[C@@H](CCC(N)=O)C(=O)N[C@H](C(=O)N[C@@H](C)C(=O)N[C@H](C(=O)N[C@@H](CO)C(=O)NCC(=O)N[C@@H](CCSC)C(=O)N[C@@H](CO)C(=O)N[C@H](C(=O)N[C@@H](Cc1c[nH]c2ccccc12)C(=O)N[C@@H](CO)C(=O)N[C@@H](CCCCN)C(=O)N[C@@H](CCCNC(=N)N)C(=O)N[C@@H](CO)C(=O)N[C@@H](CC(C)C)C(N)=O)[C@@H](C)O)[C@@H](C)CC)[C@@H](C)CC)C(C)C)[C@@H](C)CC)C(C)C)C(=O)O [Ac K(PalmGlu)-PEG12-B7-33] (Ac-K([γGlu-Palmitoyl])[PEG12]VIKLSGRELVRAQIAISGMSTWSKRSL-NH2)
α-SMA expression levels versus T-alone-stimulated cells, in words ([2]; peptide 100 ng/mL + T 2 ng/mL, after 7–14 days of culture): fully returned to those measured for T-alone-stimulated cells
α-SMA expression level relative to T-alone-stimulated cells ([2]; peptide 100 ng/mL + T 2 ng/mL, after 5 days, media unchanged, 0.5% FCS): ~ 70%
suppression of TGF-α-induced increase in α-SMA expression ([2]; peptide 100 ng/mL co-administered with T (2 ng/mL), after 72 h of culture, 0.5% FCS, n = 6 in duplicate): almost fully suppressed

Ki [3]: > 10 µM
SMILES: CCCCCCCCCCCCCCCC(=O)NCCCC[C@H](NC(=O)[C@@H](NC(=O)[C@@H](N)C(C)C)[C@@H](C)CC)C(=O)N[C@@H](CC(C)C)C(=O)N[C@@H](CO)C(=O)NCC(=O)N[C@@H](CCCNC(=N)N)C(=O)N[C@@H](CCC(=O)O)C(=O)N[C@@H](CC(C)C)C(=O)N[C@H](C(=O)N[C@@H](CCCNC(=N)N)C(=O)N[C@@H](C)C(=O)N[C@@H](CCC(N)=O)C(=O)N[C@H](C(=O)N[C@@H](C)C(=O)N[C@H](C(=O)N[C@@H](CO)C(=O)NCC(=O)N[C@@H](CCSC)C(=O)N[C@@H](CO)C(=O)N[C@H](C(=O)N[C@@H](Cc1c[nH]c2ccccc12)C(=O)N[C@@H](CO)C(=O)N[C@@H](CCCCN)C(=O)N[C@@H](CCCNC(=N)N)C(=O)N[C@@H](CO)C(=O)N[C@@H](CC(C)C)C(N)=O)[C@@H](C)O)[C@@H](C)CC)[C@@H](C)CC)C(C)C [B7-33_9K(Palm)] (H-VIK(Palmitoyl)LSGRELVRAQIAISGMSTWSKRSL-NH2; N-terminus assumed)

Ki [3]: > 10 µM
SMILES: CCCCCCCCCCCCCCCC(=O)NCCOCCOCCOCCOCCOCCOCCC(=O)N[C@H](C(=O)N[C@H](C(=O)N[C@@H](CCCCN)C(=O)N[C@@H](CC(C)C)C(=O)N[C@@H](CO)C(=O)NCC(=O)N[C@@H](CCCNC(=N)N)C(=O)N[C@@H](CCC(=O)O)C(=O)N[C@@H](CC(C)C)C(=O)N[C@H](C(=O)N[C@@H](CCCNC(=N)N)C(=O)N[C@@H](C)C(=O)N[C@@H](CCC(N)=O)C(=O)N[C@H](C(=O)N[C@@H](C)C(=O)N[C@H](C(=O)N[C@@H](CO)C(=O)NCC(=O)N[C@@H](CCSC)C(=O)N[C@@H](CO)C(=O)N[C@H](C(=O)N[C@@H](Cc1c[nH]c2ccccc12)C(=O)N[C@@H](CO)C(=O)N[C@@H](CCCCN)C(=O)N[C@@H](CCCNC(=N)N)C(=O)N[C@@H](CO)C(=O)N[C@@H](CC(C)C)C(N)=O)[C@@H](C)O)[C@@H](C)CC)[C@@H](C)CC)C(C)C)[C@@H](C)CC)C(C)C [Palmitic acid-PEG6-B7-33] ({Palmitoyl-PEG6}-VIKLSGRELVRAQIAISGMSTWSKRSL-NH2)

Ki [3]: > 10 µM
SMILES: CCCCCCCCCCCCCCCC(=O)NCCCC[C@H](NC(=O)[C@H](CCC(=O)O)NC(=O)[C@H](Cc1ccc(O)cc1)NC(=O)[C@@H](N)CCC(=O)O)C(=O)N[C@@H](CCC(=O)O)C(=O)N[C@@H](Cc1ccc(O)cc1)C(=O)N[C@@H](CCC(=O)O)C(=O)N[C@H](C(=O)N[C@H](C(=O)N[C@@H](CCCCN)C(=O)N[C@@H](CC(C)C)C(=O)N[C@@H](CO)C(=O)NCC(=O)N[C@@H](CCCNC(=N)N)C(=O)N[C@@H](CCC(=O)O)C(=O)N[C@@H](CC(C)C)C(=O)N[C@H](C(=O)N[C@@H](CCCNC(=N)N)C(=O)N[C@@H](C)C(=O)N[C@@H](CCC(N)=O)C(=O)N[C@H](C(=O)N[C@@H](C)C(=O)N[C@H](C(=O)N[C@@H](CO)C(=O)NCC(=O)N[C@@H](CCSC)C(=O)N[C@@H](CO)C(=O)N[C@H](C(=O)N[C@@H](Cc1c[nH]c2ccccc12)C(=O)N[C@@H](CO)C(=O)N[C@@H](CCCCN)C(=O)N[C@@H](CCCNC(=N)N)C(=O)N[C@@H](CO)C(=O)N[C@@H](CC(C)C)C(N)=O)[C@@H](C)O)[C@@H](C)CC)[C@@H](C)CC)C(C)C)[C@@H](C)CC)C(C)C [Tag-B7-33] (H-EYEK(Palmitoyl)EYEVIKLSGRELVRAQIAISGMSTWSKRSL-NH2)

Ki [3]: > 10 µM
SMILES: CCCCCCCCCCCCCCCC(=O)NCCCC[C@H](NC(=O)[C@H](CCC(=O)O)NC(=O)[C@H](Cc1ccc(O)cc1)NC(=O)[C@@H](N)CCC(=O)O)C(=O)N[C@@H](CCC(=O)O)C(=O)N[C@@H](Cc1ccc(O)cc1)C(=O)N[C@@H](CCC(=O)O)C(=O)NCCOCCOCCOCCOCCC(=O)N[C@H](C(=O)N[C@H](C(=O)N[C@@H](CCCCN)C(=O)N[C@@H](CC(C)C)C(=O)N[C@@H](CO)C(=O)NCC(=O)N[C@@H](CCCNC(=N)N)C(=O)N[C@@H](CCC(=O)O)C(=O)N[C@@H](CC(C)C)C(=O)N[C@H](C(=O)N[C@@H](CCCNC(=N)N)C(=O)N[C@@H](C)C(=O)N[C@@H](CCC(N)=O)C(=O)N[C@H](C(=O)N[C@@H](C)C(=O)N[C@H](C(=O)N[C@@H](CO)C(=O)NCC(=O)N[C@@H](CCSC)C(=O)N[C@@H](CO)C(=O)N[C@H](C(=O)N[C@@H](Cc1c[nH]c2ccccc12)C(=O)N[C@@H](CO)C(=O)N[C@@H](CCCCN)C(=O)N[C@@H](CCCNC(=N)N)C(=O)N[C@@H](CO)C(=O)N[C@@H](CC(C)C)C(N)=O)[C@@H](C)O)[C@@H](C)CC)[C@@H](C)CC)C(C)C)[C@@H](C)CC)C(C)C [Tag-PEG4-B7-33]
